PubChem BioAssay (NCI)
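Five concentrations, 48 hours, 96-well plates. The concentration for 50% growth inhibition is given as GI50. TGI marks complete inhibition of growth.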

Columns and labels:
Assay in all cases: NCI-60 cell line screen, 48 h
NCI-H522 lung = tested on: NCI-H522 lung
MCF7 breast = tested on: MCF7 breast
K-562 leukemia = tested on: K-562 leukemia
A498 renal = tested on: A498 renal
MOLT-4 leukemia = tested on: MOLT-4 leukemia
HCT-15 colon = tested on: HCT-15 colon
OVCAR-3 ovarian = tested on: OVCAR-3 ovarian
HCC-2998 colon = tested on: HCC-2998 colon
HT29 colon = tested on: HT29 colon
TK-10 renal = tested on: TK-10 renal
HS 578T breast = tested on: HS 578T breast
SK-MEL-5 melanoma = tested on: SK-MEL-5 melanoma
RXF 393 renal = tested on: RXF 393 renal
SF-295 CNS = tested on: SF-295 CNS
HOP-62 NSCLC = tested on: HOP-62 NSCLC
ACHN renal = tested on: ACHN renal
NCI-H226 lung = tested on: NCI-H226 lung
HL-60(TB) leukemia = tested on: HL-60(TB) leukemia
LOX IMVI melanoma = tested on: LOX IMVI melanoma
HCT-116 colon = tested on: HCT-116 colon
NCI-H23 lung = tested on: NCI-H23 lung
EKVX NSCLC = tested on: EKVX NSCLC
HOP-92 NSCLC = tested on: HOP-92 NSCLC
786-0 renal = tested on: 786-0 renal
SR leukemia = tested on: SR leukemia
A549 NSCLC = tested on: A549 NSCLC
SW-620 colon = tested on: SW-620 colon
MDA-MB-231 breast = tested on: MDA-MB-231 breast
SNB-19 CNS = tested on: SNB-19 CNS
T-47D breast = tested on: T-47D breast
OVCAR-8 ovarian = tested on: OVCAR-8 ovarian
SK-MEL-28 melanoma = tested on: SK-MEL-28 melanoma
MALME-3M melanoma = tested on: MALME-3M melanoma
KM12 colon = tested on: KM12 colon
U251 CNS = tested on: U251 CNS
SK-OV-3 ovarian = tested on: SK-OV-3 ovarian
COLO 205 colon = tested on: COLO 205 colon
UO-31 renal = tested on: UO-31 renal
SF-268 CNS = tested on: SF-268 CNS
IGROV1 ovarian = tested on: IGROV1 ovarian
SF-539 CNS = tested on: SF-539 CNS
NCI/ADR-RES ovarian = tested on: NCI/ADR-RES ovarian
UACC-62 melanoma = tested on: UACC-62 melanoma
MDA-MB-435 = tested on: MDA-MB-435
SNB-75 CNS = tested on: SNB-75 CNS
OVCAR-5 ovarian = tested on: OVCAR-5 ovarian
BT-549 breast = tested on: BT-549 breast
CCRF-CEM leukemia = tested on: CCRF-CEM leukemia
SK-MEL-2 melanoma = tested on: SK-MEL-2 melanoma
CAKI-1 renal = tested on: CAKI-1 renal
M14 melanoma = tested on: M14 melanoma
PC-3 prostate = tested on: PC-3 prostate
UACC-257 melanoma = tested on: UACC-257 melanoma
MDA-MB-468 breast = tested on: MDA-MB-468 breast
SN12C renal = tested on: SN12C renal
DU-145 prostate = tested on: DU-145 prostate
RPMI-8226 leukemia = tested on: RPMI-8226 leukemia
NCI-H460 lung = tested on: NCI-H460 lung
OVCAR-4 ovarian = tested on: OVCAR-4 ovarian

Cn1cc(-c2nnc(N)nc2-c2c[nH]c3ccccc23)c2cc(Br)cnc21
GI50 (NCI-H522 lung): 3.78 µM
TGI (NCI-H522 lung): 21.6 µM
GI50 (MCF7 breast): 1.5 µM
TGI (MCF7 breast): 15 µM
GI50 (K-562 leukemia): 2.99 µM
TGI (K-562 leukemia): > 100 µM
GI50 (A498 renal): 12.3 µM
TGI (A498 renal): 24.8 µM
GI50 (MOLT-4 leukemia): 3.37 µM
TGI (MOLT-4 leukemia): 27.3 µM
GI50 (HCT-15 colon): 4.68 µM
TGI (HCT-15 colon): 32 µM
GI50 (OVCAR-3 ovarian): 11.1 µM
TGI (OVCAR-3 ovarian): 23.4 µM
GI50 (HCC-2998 colon): 10.1 µM
TGI (HCC-2998 colon): 23.7 µM
GI50 (HT29 colon): 10 µM
TGI (HT29 colon): 27.3 µM
GI50 (TK-10 renal): 12.8 µM
TGI (TK-10 renal): 26.8 µM
GI50 (HS 578T breast): 4.92 µM
TGI (HS 578T breast): 32 µM
GI50 (SK-MEL-5 melanoma): 6.84 µM
TGI (SK-MEL-5 melanoma): 19.8 µM
GI50 (RXF 393 renal): 3.37 µM
TGI (RXF 393 renal): 20.3 µM
GI50 (SF-295 CNS): 4.07 µM
TGI (SF-295 CNS): 17.5 µM
GI50 (HOP-62 NSCLC): 9.73 µM
TGI (HOP-62 NSCLC): 25.9 µM
GI50 (ACHN renal): 5.41 µM
TGI (ACHN renal): 19.2 µM
GI50 (NCI-H226 lung): 12.2 µM
TGI (NCI-H226 lung): 36.7 µM
GI50 (HL-60(TB) leukemia): 4.63 µM
TGI (HL-60(TB) leukemia): 34.6 µM
GI50 (LOX IMVI melanoma): 5.19 µM
TGI (LOX IMVI melanoma): 26.5 µM
GI50 (HCT-116 colon): 8.67 µM
TGI (HCT-116 colon): 21.2 µM
GI50 (NCI-H23 lung): 13.9 µM
TGI (NCI-H23 lung): 36 µM
GI50 (EKVX NSCLC): 13.2 µM
TGI (EKVX NSCLC): 28.5 µM
GI50 (HOP-92 NSCLC): 4.44 µM
TGI (HOP-92 NSCLC): 24.1 µM
GI50 (786-0 renal): 9.51 µM
TGI (786-0 renal): 26.3 µM
GI50 (SR leukemia): 1.54 µM
TGI (SR leukemia): 71.2 µM
GI50 (A549 NSCLC): 12.7 µM
TGI (A549 NSCLC): 46.9 µM
GI50 (SW-620 colon): 10 µM
TGI (SW-620 colon): 23.3 µM
GI50 (MDA-MB-231 breast): 7.8 µM
TGI (MDA-MB-231 breast): 27.6 µM
GI50 (SNB-19 CNS): 12.2 µM
TGI (SNB-19 CNS): 24.8 µM
GI50 (T-47D breast): 4.12 µM
TGI (T-47D breast): 24.9 µM
GI50 (OVCAR-8 ovarian): 12.5 µM
TGI (OVCAR-8 ovarian): 28.9 µM
GI50 (SK-MEL-28 melanoma): 10.9 µM
TGI (SK-MEL-28 melanoma): 22.8 µM
GI50 (MALME-3M melanoma): 8.27 µM
TGI (MALME-3M melanoma): 20.7 µM
GI50 (KM12 colon): 13.1 µM
TGI (KM12 colon): 27.6 µM
GI50 (U251 CNS): 10.5 µM
TGI (U251 CNS): 23.2 µM
GI50 (SK-OV-3 ovarian): 16.6 µM
TGI (SK-OV-3 ovarian): 35.6 µM
GI50 (COLO 205 colon): 7.03 µM
TGI (COLO 205 colon): 21.1 µM
TGI (UO-31 renal): 14.8 µM
GI50 (SF-268 CNS): 10.7 µM
TGI (SF-268 CNS): 27.3 µM
GI50 (IGROV1 ovarian): 2.6 µM
TGI (IGROV1 ovarian): 17.3 µM
GI50 (SF-539 CNS): 10.7 µM
TGI (SF-539 CNS): 22.6 µM
GI50 (NCI/ADR-RES ovarian): 10.7 µM
TGI (NCI/ADR-RES ovarian): 36.3 µM
GI50 (UACC-62 melanoma): 3.14 µM
TGI (UACC-62 melanoma): 16.8 µM
GI50 (MDA-MB-435): 3.11 µM
TGI (MDA-MB-435): 10.4 µM
GI50 (SNB-75 CNS): 2.7 µM
TGI (SNB-75 CNS): 15.6 µM
GI50 (OVCAR-5 ovarian): 14.6 µM
TGI (OVCAR-5 ovarian): 29.8 µM
GI50 (BT-549 breast): 5.94 µM
TGI (BT-549 breast): 19.8 µM
GI50 (CCRF-CEM leukemia): 4.8 µM
TGI (CCRF-CEM leukemia): 33.6 µM
GI50 (SK-MEL-2 melanoma): 12.3 µM
TGI (SK-MEL-2 melanoma): 27.1 µM
GI50 (CAKI-1 renal): 10.7 µM
TGI (CAKI-1 renal): 22.5 µM
GI50 (M14 melanoma): 10.8 µM
TGI (M14 melanoma): 23.9 µM
GI50 (PC-3 prostate): 8.26 µM
TGI (PC-3 prostate): > 100 µM
GI50 (UACC-257 melanoma): 13.4 µM
TGI (UACC-257 melanoma): 27.1 µM
GI50 (MDA-MB-468 breast): 2.38 µM
TGI (MDA-MB-468 breast): 12.8 µM
GI50 (SN12C renal): 10.2 µM
TGI (SN12C renal): 22.2 µM
GI50 (DU-145 prostate): 14.5 µM
TGI (DU-145 prostate): 28.8 µM
GI50 (RPMI-8226 leukemia): 6.43 µM
TGI (RPMI-8226 leukemia): > 100 µM
GI50 (NCI-H460 lung): 5.02 µM
TGI (NCI-H460 lung): 21 µM
GI50 (OVCAR-4 ovarian): 7.09 µM
TGI (OVCAR-4 ovarian): 21.2 µM
